From US6207389A, “Methods of controlling T lymphocyte mediated immune responses” (HRC Research and Development Limited Partnership, priority 1995, dated 2001)

How the values were obtained:
NOD mice = experiment: Serum antibodies to BSA and p69 by fluoroimmunoassay, NOD mice (Example 11); type: in vivo, mouse; conditions: 50 μg sc in complete Freund's adjuvant
Description: (§1) Male non-obese diabetic mice (NOD, 6-7 weeks old) were immunized with 50 μg BSA, ABBOS-short peptide ([…]), recombinant truncated p69 or p69 T cell epitope peptide `Tep69` ([…]) (10). Recombinant truncated p69 was prepared by expression of a portion of the cDNA of IS4. The cDNA was cut a few nucleotides downstream of the 3' terminal of exon 3 and was subcloned into the PET™ expression system according to the manufacturer's recommendations (Novagen Inc., Madison, Wis.).
(§2) Antigens were injected subcutaneously in complete Freunds' adjuvant, and local lymph nodes and blood samples were collected 10 days later. […] Six hours before harvesting, 1 μCi ^3 H-thymidine (6.7 Ci/mmol) was added to the wells, and isotope incorporation was analysed by liquid scintillation counting. Values are expressed as mean counts per minute ± standard deviation (mean cpm ± SD).
(§3) Serum antibodies to BSA and p69 were measured by particle concentration fluoroimmunoassay, as described (11). […] Bound fluorescence was read by an automated ScreenMachine™ instrument (IDEXX, Portland, Me.). Data are expressed in kilofluorescence units relative to a standard mouse serum analyzed in parallel within each assay plate.
(§4) Young male NOD mice (H2^G7, IE^-/-) received a single immunization with truncated p69 (as encoded by IS4 cDNA) in complete adjuvant, and antibody and T cell proliferative responses were measured 8-10 days later. […]

[1] = test system: C57/B6 and SJL mice lymph node cells; experiment: Immunization and T cell proliferation assay, non-diabetes prone control mice (Example 11); type: in vivo, mouse; conditions: 50 μg sc in complete Freund's adjuvant
Description: (§5) Recombinant truncated p69 was prepared by expression of a portion of the cDNA of IS4. The cDNA was cut a few nucleotides downstream of the 3' terminal of exon 3 and was subcloned into the PET™ expression system according to the manufacturer's recommendations (Novagen Inc., Madison, Wis.). The truncated protein contains 100 amino acids and is essentially identical with the murine molecule.
(§6) Antigens were injected subcutaneously in complete Freunds' adjuvant, and local lymph nodes and blood samples were collected 10 days later. Triplicate cultures of 2×10^5 lymph node cells were incubated for 5 days in serum-free HGM-af Medium™ (Promo Cell, Heidelberg, Germany) in the presence of 1 μg of protein or synthetic peptide as recall antigen. Six hours before harvesting, 1 μCi ^3 H-thymidine (6.7 Ci/mmol) was added to the wells, and isotope incorporation was analysed by liquid scintillation counting. Values are expressed as mean counts per minute ± standard deviation (mean cpm ± SD).
(§7) Young male NOD mice (H2^G7, IE^-/-) received a single immunization with truncated p69 (as encoded by IS4 cDNA) in complete adjuvant, and antibody and T cell proliferative responses were measured 8-10 days later. MHC disparate C57/B6 (H2^b, IE^-/-) and SJL (H2^s, IE^-/-) mice served as non-diabetes prone controls (FIG. 31).

[2] = test system: PBMC from healthy subjects; experiment: T cell proliferation assay with BSA and rec-p69, healthy subjects (Example 3); type: cell-based, human; conditions: with or without IL2
Description: (§8) Cultures containing 5×10^4 cells were incubated for 7 days at 37° C. in serum-free HL-1 medium (Ventrex, Portland, Me.) containing 1 μg antigen per well for test samples.
(§9) Control cultures were treated with 1 μg human, chick or horse albumin or an equivalent volume of control recombinant antigen prepared from lysates of E. coli carrying wild type plasmid.
(§10) After an overnight pulse of 1 μci ^3 H thymidine, cultures were harvested and submitted to liquid scintillation counting. Proliferation was expressed as cpm ^3 HTdR×10^-3.
(§11) A parallel set of cell cultures was incubated with the same test antigens or control agents in the presence of 10 U human IL2.

[3] = test system: PBMC cultures from patients with recent onset diabetes; experiment: Proliferative responses to antigen mixtures (Example 5); type: cell-based, human; conditions: patient PBMC, no IL2 (FIG. 9A)
Description: Proliferation assays were conducted as described in Example 3. Control cultures were treated with 1 μg horse albumin or with the peptides P2240, P2269, P2270 or H1029. Results with control antigens were similar and data were pooled.
Responses were expressed as mean of triplicate cultures; variations were <12%. Responses in the absence of IL2 are shown in FIG. 9, Panel A. Parallel cultures were treated with the same antigens and antigen mixtures in the presence of 10U IL2.

[4] = test system: NOD mice lymph node cells; experiment: Immunization and T cell proliferation assay, NOD mice (Example 11); type: in vivo, mouse; conditions: 50 μg sc in complete Freund's adjuvant, recall with 1 μg antigen in vitro
Description: as §5, §6, §7

[5] = test system: PBMC from children with recent onset diabetes; experiment: T cell proliferation assay with BSA and rec-p69, patients (Example 3); type: cell-based, human; conditions: 1 μg antigen
Description: as §8, §9, §10, §11

female NOD mice [6] = experiment: IDDM development after immunotherapy with BSA or ABBOS in adjuvant (Example 7); type: in vivo, mouse; conditions: 150 μg BSA or 50 μg ABBOS in incomplete Freund's Adjuvant sc at 5 weeks, ip booster one week later; up to 9 months
Description: (§12) A control group (13 mice) was injected with incomplete Freund's Adjuvant only and a further control group (13 mice) was untreated. A booster injection of the same treatment material was given intraperitoneally one week later.
IDDM development was followed by testing for urine glucose and when urine glucose was detected, blood glucose was then determined.

[7] = test system: PBMC from children with recent onset diabetes; experiment: Proliferative response of PBMC to peptide fragments in the presence of IL2 (Example 4); type: cell-based, human; conditions: patient PBMC
Description: as §8, §10
Control cultures were stimulated with 1 μg ovalbumin or horse or human albumin. […] A 4 h. pulse with 1 μCi ^3 H thymidine was used.
Each synthetic peptide was tested with PBMC from at least 3 children with recent onset diabetes. Stimulation Index=^3 H Thymidine Incorporation in peptide-stimulated culture in cpm divided by Thymidine incorporation in control culture in cpm.
Peptides corresponding to stretches of the amino acid sequence of human p69 were also synthesised and the proliferative response to patient PBMC cultures to these peptides were similarly tested, in the presence of IL2.

C57/B6 and SJL mice = experiment: Serum antibodies to BSA and p69 by fluoroimmunoassay, control mice (Example 11); type: in vivo, mouse; conditions: 50 μg sc in complete Freund's adjuvant
Description: as §1, §2, §3, §4

female NOD mice [8] = experiment: Circulating IgG anti-BSA antibodies by particle concentration fluoroimmunoassay (Example 7); type: in vivo, mouse; conditions: same treatment; over 34 weeks
Description: as §12
Circulating IgG anti-BSA antibodies were measured over the 34 weeks of the experiment, using the particle concentration fluoroimmunoassay described by the inventors in International Patent Application No. PCT/CA93/000304.

[9] = test system: PBMC from a child with recent onset diabetes; experiment: Proliferative response, patient cells (Example 6); type: cell-based, human; conditions: 1 μg antigen per culture, 7 days
Description: Replicate cultures of PBMC from a child with recent onset diabetes and a healthy control subject were stimulated with P2267, Tep69, Herpes simplex antigen or a mixture of P2267 and Tep69 (1 μg antigen per culture) as described in Example 3. After 2 days of incubation, one patient cell culture and one healthy control culture were harvested for RNA extraction and measurement of IL2 receptor transcripts by RT-PCR, as described by Cheung et al., (1991), J. Biol. Chem., v. 266, pp. 8667-8670. PCR was used to amplify a 739 bp fragment of IL2R coding sequence from patient and control and also a 430 bp region in the human β-actin gene of patient.
Remaining cultures were incubated for a further 5 days and used to determine proliferative responses as described in Example 3.

Substance: bovine serum albumin [BSA]
- antibody response after immunisation (anti-p69 or anti-BSA) (NOD mice): vigorous B- and T cell responses
- T cell proliferative response after immunisation [1]: vigorous B- and T cell responses
- proliferative response of samples from healthy subjects [2]: no significant proliferative response
- PBMC proliferation in the absence of IL2 [3]: gave PBMC proliferation in the absence of IL2
- T cell proliferative response after immunisation [4]: vigorous B- and T cell responses
- proliferative response of patient samples ([5]; absence of IL2): marked proliferative response
- proliferative response of patient samples ([5]; presence of 10 U IL2): increased response
- development of IDDM (female NOD mice [6]): complete prevention of IDDM
- PBMC proliferative response [7]: significantly higher than responses to control antigens or peptides
- antibody response after immunisation (anti-p69 or anti-BSA) (C57/B6 and SJL mice): vigorous B- and T cell responses
- anti-BSA antibody response (female NOD mice [8]): massive antibody response
- proliferation of patient cells [9]: 6740±480 cpm
